The results in this text go back to patent publication US20220339257A1, “METHODS TO INCREASE THE SENSITIVITY AND REVERSING THE RESISTANCE TO DRUGS” (Biomarker Strategies, LLC, priority 2019, published 2022).

Holding throughout (type): cell-based
Test [1] relates to clinical sample; HS2170 and Calu-6 cells. Put plainly: HoPI assay (Hoechst 33342 and propidium iodide). The settings on record: Osimertinib in combination with EM2. The source says:
(§1) A double stain of Hoechst 33342 and propidium iodide allows for the determination of cell viability with high specificity and low background noise, as compared to trypan blue staining. Hoechst 33342 is a cell permeable blue fluorescent nuclear stain which will stain all cell types. Propidium iodide is a cell impermeable red fluorescent nuclear stain that will only bind to the nuclei of cells with compromised membranes (dead cells). The staining can be performed rapidly on live cell suspensions within 15 minutes. 25 uL of 4× Hoechst 33342 Solution (40 ug/mL) and 25 uL of 4×Propidium Iodide Solution are added to 50 uL of cell suspension. The suspension was gently mixed 10 times and 50 uL was immediately transferred to a microfluidic cell counting chip. A 365 nm LED was used to excite both Hoechst 33342 and propidium iodide. Images of the cells were captured using a 10× objective lens on an Olympus microscope using a Canon EOS 6D camera using an ISO of 800 and an exposure of 2 seconds; both JPEG and RAW images were saved for analysis. The blue channel was used to measure the total number of cells and the red channel was used to measure the number of dead cells. Cell counting was performed automatically by the Image Pro software (Media Cybernetics, Inc).

Test [2] concerns RPMI-1975. The experiment in a line: HoPI live cell staining. The note with it: 24 hours.
From the text: as §1
MTA and EM effects on apoptosis were measured by Hoechst-Propidium Iodide staining (HoPI). For the assay, cells were seeded in 6-well plates at 400K cells per well, in 2 mL of 10% FBS-containing media and incubated for 24 hours. At 24 hours, a 1 nM to […] range of MTA and/or 1 ng/mL to 1 mg/mL range of EM doses was added and incubated for 24 hours. After 24 hours incubation respective cells' media was collected, added the 1× HBSS wash from the plate in the respective tube. Adherent cells were detached by treating with Accutase for 6 minutes and collected in respective tubes. All samples were centrifuged for 5 minutes at 1200 RPM. […] The area, mean intensity, standard deviation of the mean intensity, minimum intensity, maximum intensity and perimeter were measured for each cellular region in the red channel and also in the blue channel. […]

Test [3] has as its system panel of cell lines that included NSCLC, HNSCC, melanoma, and CRC. Put plainly: WST8 in vitro sensitivity to MTAs with and without EM. As for the experimental part: Day 1: cells were harvested cells from flask (4 mL accutase for T175 for 3-5 minutes), and spin down for 5 mins at 1200 rpm. The supernatant was poured off, and the pellet gently resuspended in 1 mL media. Countess counts were performed, and the cells were diluted in media (10% FBS). With multi-channel pipette, 2500 cells were seeded in 100 uL of media (10% FBS) in each well of 96 well plate. The cells were let to adhere and grow for 24 hours. Day 2: serial drug dilutions of MTAs+/−EMs at 5× of concentrations (as done above) were performed in media (10% FBS). 20 uL of media form each well of the 96 well plate (80 uL media left in wells) was removed, and 20 uL of appropriate 5× drug dilutions was added to each respective well (for a 1× conc). The cells were incubated with drug for 72 hours in 37C incubator. Day 5: 10 uL of WST-8 reagent was added to each well of the 96 well plate and mixed gently. the plates were incubated up to 4 hours at 37C in dark, and absorbance readings were taken at […] and 600 nm wavelengths at 1, 2, 3 and 4h, until control absorbance levels were 1.5-2.0).
We used a panel of cell lines that included NSCLC, HNSCC, melanoma, and CRC. These cell lines are a good model system harboring similar (epi)genetic changes found in patients' tumors. We used the WST8 assay to determine the in vitro sensitivity to various MTAs with and without EM1.
(Tetrazolium assays rely on reduction of a dye to a coloured formazan, in cell work by metabolically active cells.)

tumor necrosis factor-alpha [EM2]: in test [1], the “cell death (HoPI assay)” value was “increase in cell death”. The “reduction in live cells (HoPI)” value in test [2] (GSK458 and TNFa in combination) stood at 68%; in test [2] (single agent), 8%. The “response enhancement (in vitro sensitivity to various MTAs with and without EM, WST8)” value in test [3] was “no, minimal and strong response enhancement”.
